Reference: article PMC3115942 (PLoS ONE, 2011)

What was measured:
Assay in all cases: Millipore kinaseprofiler diversity array
Assay type in all cases: biochemical
Details in all cases: 10 µM MS-0022
[1] = biological target: T1, IGF-1R(h) (Homo sapiens, UniProt P08069)
T1 construct: purchased Millipore (Upstate) KinaseProfiler
Procedure: (§1) Table 4 Kinase activity in presence of 10 µM MS-0022 in a kinaseprofiler diversity array. | column: Activity %

[2] = biological target: T2, TAK1(h) (Homo sapiens, UniProt O43318)
T2 construct: purchased Millipore (Upstate) KinaseProfiler
T2 sequence (O43318 1-303 limits assumed): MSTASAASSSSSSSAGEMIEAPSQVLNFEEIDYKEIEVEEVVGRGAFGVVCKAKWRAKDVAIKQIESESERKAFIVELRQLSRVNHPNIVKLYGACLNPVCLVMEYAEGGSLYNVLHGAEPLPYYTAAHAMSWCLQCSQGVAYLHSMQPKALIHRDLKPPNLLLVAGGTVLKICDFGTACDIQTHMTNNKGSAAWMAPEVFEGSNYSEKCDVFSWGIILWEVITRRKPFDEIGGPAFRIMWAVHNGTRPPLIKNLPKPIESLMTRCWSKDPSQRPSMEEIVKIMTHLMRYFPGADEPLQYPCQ
Procedure: as §1

[3] = biological target: T3, MEK1(h) (Homo sapiens, UniProt Q02750)
T3 construct: purchased Millipore (Upstate) KinaseProfiler
Procedure: as §1

[4] = biological target: T4, LOK(h) (Homo sapiens, UniProt O94804)
T4 construct: purchased Millipore (Upstate) KinaseProfiler
T4 sequence (O94804 whole entry): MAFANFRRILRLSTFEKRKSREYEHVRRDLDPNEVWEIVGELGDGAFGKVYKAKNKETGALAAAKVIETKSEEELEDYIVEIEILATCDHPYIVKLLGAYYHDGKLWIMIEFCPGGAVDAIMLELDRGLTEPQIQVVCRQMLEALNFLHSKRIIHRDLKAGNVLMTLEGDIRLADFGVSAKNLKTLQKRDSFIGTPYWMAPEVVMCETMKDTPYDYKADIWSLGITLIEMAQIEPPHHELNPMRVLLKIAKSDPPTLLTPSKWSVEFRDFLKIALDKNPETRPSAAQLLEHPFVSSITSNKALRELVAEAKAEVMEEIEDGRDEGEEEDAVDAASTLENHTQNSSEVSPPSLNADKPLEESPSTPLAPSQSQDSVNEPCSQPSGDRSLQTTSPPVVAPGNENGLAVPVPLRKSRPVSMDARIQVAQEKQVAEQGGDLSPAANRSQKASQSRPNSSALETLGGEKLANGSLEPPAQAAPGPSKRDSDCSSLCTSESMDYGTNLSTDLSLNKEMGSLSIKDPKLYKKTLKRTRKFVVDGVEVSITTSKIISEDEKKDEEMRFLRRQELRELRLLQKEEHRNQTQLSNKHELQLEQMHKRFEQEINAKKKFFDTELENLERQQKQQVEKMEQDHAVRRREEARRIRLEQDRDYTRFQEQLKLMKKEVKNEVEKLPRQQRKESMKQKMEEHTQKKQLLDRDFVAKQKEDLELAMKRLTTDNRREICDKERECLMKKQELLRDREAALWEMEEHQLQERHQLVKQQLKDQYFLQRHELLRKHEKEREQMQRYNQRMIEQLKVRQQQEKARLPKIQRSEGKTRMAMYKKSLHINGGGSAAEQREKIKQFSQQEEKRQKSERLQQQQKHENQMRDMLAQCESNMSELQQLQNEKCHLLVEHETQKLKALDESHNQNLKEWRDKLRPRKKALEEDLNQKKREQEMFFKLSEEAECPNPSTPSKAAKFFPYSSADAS
Procedure: as §1

[5] = biological target: T5, cSRC(h) (Homo sapiens, UniProt P12931)
T5 construct: purchased Millipore (Upstate) KinaseProfiler
Procedure: as §1

[6] = biological target: T6, GRK5(h) (Homo sapiens, UniProt P34947)
T6 construct: purchased Millipore (Upstate) KinaseProfiler
Procedure: as §1

[7] = biological target: T7, p70S6K(h) (Homo sapiens, UniProt P23443)
T7 construct: purchased Millipore (Upstate) KinaseProfiler
Procedure: as §1

[8] = biological target: T8, EphA5(h) (Homo sapiens, UniProt P54756)
T8 construct: purchased Millipore (Upstate) KinaseProfiler
Procedure: as §1

[9] = biological target: T9, PKBα(h) (Homo sapiens, UniProt P31749)
T9 construct: purchased Millipore (Upstate) KinaseProfiler
Procedure: as §1

[10] = biological target: T10, CHK1(h) (Homo sapiens, UniProt O14757)
T10 construct: purchased Millipore (Upstate) KinaseProfiler
Procedure: as §1

[11] = biological target: T11, MSK2(h) (Homo sapiens, UniProt O75676)
T11 construct: purchased Millipore (Upstate) KinaseProfiler
Procedure: as §1

[12] = biological target: T12, Mnk2(h) (Homo sapiens, UniProt Q9HBH9)
T12 construct: purchased Millipore (Upstate) KinaseProfiler
T12 sequence (Q9HBH9 whole entry): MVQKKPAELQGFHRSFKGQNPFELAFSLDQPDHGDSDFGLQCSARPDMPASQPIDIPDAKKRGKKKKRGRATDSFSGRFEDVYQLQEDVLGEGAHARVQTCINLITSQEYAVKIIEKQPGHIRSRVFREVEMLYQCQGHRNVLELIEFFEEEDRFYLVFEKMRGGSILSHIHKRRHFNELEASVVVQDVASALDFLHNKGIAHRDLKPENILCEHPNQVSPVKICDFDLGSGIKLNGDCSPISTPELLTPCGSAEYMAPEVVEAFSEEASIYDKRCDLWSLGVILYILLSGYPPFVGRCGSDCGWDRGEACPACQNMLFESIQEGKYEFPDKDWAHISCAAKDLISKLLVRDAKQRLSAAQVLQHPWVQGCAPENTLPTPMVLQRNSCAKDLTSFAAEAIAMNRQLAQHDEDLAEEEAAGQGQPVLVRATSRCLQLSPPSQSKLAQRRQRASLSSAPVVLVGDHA
Procedure: as §1

[13] = biological target: T13, GSK3β(h) (Homo sapiens, UniProt P49841)
T13 construct: purchased Millipore (Upstate) KinaseProfiler
T13 sequence (P49841 whole entry): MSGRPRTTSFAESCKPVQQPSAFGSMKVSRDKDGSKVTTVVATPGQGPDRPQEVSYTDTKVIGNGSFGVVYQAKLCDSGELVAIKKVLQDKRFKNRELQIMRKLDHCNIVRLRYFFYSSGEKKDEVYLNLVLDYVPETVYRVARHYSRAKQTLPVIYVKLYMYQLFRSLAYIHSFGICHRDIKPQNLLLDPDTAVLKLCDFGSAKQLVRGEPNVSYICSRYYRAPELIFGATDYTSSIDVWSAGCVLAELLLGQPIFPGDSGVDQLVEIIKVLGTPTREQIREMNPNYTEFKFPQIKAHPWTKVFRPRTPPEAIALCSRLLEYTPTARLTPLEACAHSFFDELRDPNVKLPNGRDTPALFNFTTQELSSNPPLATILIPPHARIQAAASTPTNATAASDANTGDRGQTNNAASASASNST
Procedure: as §1

[14] = biological target: T14, Abl(h) (Homo sapiens, UniProt P00519)
T14 construct: purchased Millipore (Upstate) KinaseProfiler
Procedure: as §1

[15] = biological target: T15, cKit(h) (Homo sapiens, UniProt P10721)
T15 construct: purchased Millipore (Upstate) KinaseProfiler
Procedure: as §1

[16] = biological target: T16, PKCθ(h) (Homo sapiens, UniProt Q04759)
T16 construct: purchased Millipore (Upstate) KinaseProfiler
Procedure: as §1

[17] = biological target: T17, Rsk1(h) (Homo sapiens, UniProt Q15418)
T17 construct: purchased Millipore (Upstate) KinaseProfiler
Procedure: as §1

[18] = biological target: T18, IKKα(h) (Homo sapiens, UniProt O15111)
T18 construct: purchased Millipore (Upstate) KinaseProfiler
Procedure: as §1

[19] = biological target: T19, CK2α2(h) (Homo sapiens, UniProt P19784)
T19 construct: purchased Millipore (Upstate) KinaseProfiler
Procedure: as §1

[20] = biological target: T20, MAPK2(h) (Homo sapiens, UniProt P28482)
T20 construct: purchased Millipore (Upstate) KinaseProfiler
Procedure: as §1

[21] = biological target: T21, MST1(h) (Homo sapiens, UniProt Q13043)
T21 construct: purchased Millipore (Upstate) KinaseProfiler
Procedure: as §1

[22] = biological target: T22, PAK2(h) (Homo sapiens, UniProt Q13177)
T22 construct: purchased Millipore (Upstate) KinaseProfiler
Procedure: as §1

[23] = biological target: T23, JAK2(h) (Homo sapiens, UniProt O60674)
T23 construct: purchased Millipore (Upstate) KinaseProfiler
Procedure: as §1

[24] = biological target: T24, DYRK2(h) (Homo sapiens, UniProt Q92630)
T24 construct: purchased Millipore (Upstate) KinaseProfiler
Procedure: as §1

[25] = biological target: T25, Pim-1(h) (Homo sapiens, UniProt P11309)
T25 construct: purchased Millipore (Upstate) KinaseProfiler
Procedure: as §1

[26] = biological target: T26, eEF-2K(h) (Homo sapiens, UniProt O00418)
T26 construct: purchased Millipore (Upstate) KinaseProfiler
Procedure: as §1

[27] = biological target: T27, MLK1(h) (Homo sapiens, UniProt P80192)
T27 construct: purchased Millipore (Upstate) KinaseProfiler
Procedure: as §1

[28] = biological target: T28, ASK1(h) (Homo sapiens, UniProt Q99683)
T28 construct: purchased Millipore (Upstate) KinaseProfiler
Procedure: as §1

[29] = biological target: T29, EphB4(h) (Homo sapiens, UniProt P54760)
T29 construct: purchased Millipore (Upstate) KinaseProfiler
Procedure: as §1

[30] = biological target: T30, DRAK1(h) (Homo sapiens, UniProt Q9UEE5)
T30 construct: purchased Millipore (Upstate) KinaseProfiler
T30 sequence (Q9UEE5 whole entry): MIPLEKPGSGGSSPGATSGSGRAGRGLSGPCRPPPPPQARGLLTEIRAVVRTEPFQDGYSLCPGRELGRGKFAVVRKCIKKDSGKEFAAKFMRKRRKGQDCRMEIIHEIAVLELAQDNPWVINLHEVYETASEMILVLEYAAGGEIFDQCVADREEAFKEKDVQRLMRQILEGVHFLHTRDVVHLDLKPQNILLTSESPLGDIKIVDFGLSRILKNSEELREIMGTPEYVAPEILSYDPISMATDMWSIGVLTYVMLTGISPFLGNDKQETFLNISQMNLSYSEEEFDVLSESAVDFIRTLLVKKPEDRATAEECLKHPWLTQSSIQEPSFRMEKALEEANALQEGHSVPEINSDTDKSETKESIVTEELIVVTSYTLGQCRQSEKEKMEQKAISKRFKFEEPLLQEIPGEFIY
Procedure: as §1

[31] = biological target: T31, EGFR(h) (Homo sapiens, UniProt P00533)
T31 construct: purchased Millipore (Upstate) KinaseProfiler
T31 sequence (P00533 25-1210): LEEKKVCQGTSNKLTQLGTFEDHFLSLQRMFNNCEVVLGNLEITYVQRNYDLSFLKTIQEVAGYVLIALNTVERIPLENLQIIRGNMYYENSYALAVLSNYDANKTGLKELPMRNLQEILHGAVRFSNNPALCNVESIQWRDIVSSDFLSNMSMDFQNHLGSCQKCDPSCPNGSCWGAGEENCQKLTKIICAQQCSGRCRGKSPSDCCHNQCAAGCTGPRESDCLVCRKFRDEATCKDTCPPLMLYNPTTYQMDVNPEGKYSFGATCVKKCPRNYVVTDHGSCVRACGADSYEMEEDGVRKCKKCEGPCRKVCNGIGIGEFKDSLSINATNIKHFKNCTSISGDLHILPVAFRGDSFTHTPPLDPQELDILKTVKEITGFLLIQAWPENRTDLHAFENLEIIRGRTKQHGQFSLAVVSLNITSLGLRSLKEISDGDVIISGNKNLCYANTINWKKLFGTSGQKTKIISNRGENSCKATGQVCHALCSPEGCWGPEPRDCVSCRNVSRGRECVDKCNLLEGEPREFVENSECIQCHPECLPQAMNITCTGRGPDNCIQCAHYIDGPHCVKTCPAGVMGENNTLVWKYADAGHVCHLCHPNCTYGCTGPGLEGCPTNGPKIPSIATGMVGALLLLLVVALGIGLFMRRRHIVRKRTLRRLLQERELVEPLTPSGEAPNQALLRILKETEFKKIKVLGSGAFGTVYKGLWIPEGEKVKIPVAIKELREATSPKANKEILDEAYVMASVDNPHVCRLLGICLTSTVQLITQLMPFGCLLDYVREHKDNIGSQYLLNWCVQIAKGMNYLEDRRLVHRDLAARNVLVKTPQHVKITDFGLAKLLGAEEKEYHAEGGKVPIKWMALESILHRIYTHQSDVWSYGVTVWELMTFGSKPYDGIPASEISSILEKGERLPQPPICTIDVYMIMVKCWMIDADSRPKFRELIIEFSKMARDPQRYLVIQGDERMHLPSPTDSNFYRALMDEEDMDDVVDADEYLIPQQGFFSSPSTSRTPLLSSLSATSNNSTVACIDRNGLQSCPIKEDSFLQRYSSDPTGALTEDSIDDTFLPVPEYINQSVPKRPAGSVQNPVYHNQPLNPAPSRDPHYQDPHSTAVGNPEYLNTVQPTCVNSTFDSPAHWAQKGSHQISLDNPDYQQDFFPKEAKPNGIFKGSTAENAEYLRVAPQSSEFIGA
Procedure: as §1

[32] = biological target: T32, KDR(h) (Homo sapiens, UniProt P35968)
T32 construct: purchased Millipore (Upstate) KinaseProfiler
Procedure: as §1

[33] = biological target: T33, PKCα(h) (Homo sapiens, UniProt P17252)
T33 construct: purchased Millipore (Upstate) KinaseProfiler
Procedure: as §1

[34] = biological target: T34, c-RAF(h) (Homo sapiens, UniProt P04049)
T34 construct: purchased Millipore (Upstate) KinaseProfiler
Procedure: as §1

[35] = biological target: T35, Lyn(h) (Homo sapiens, UniProt P07948)
T35 construct: purchased Millipore (Upstate) KinaseProfiler
T35 sequence (P07948 whole entry): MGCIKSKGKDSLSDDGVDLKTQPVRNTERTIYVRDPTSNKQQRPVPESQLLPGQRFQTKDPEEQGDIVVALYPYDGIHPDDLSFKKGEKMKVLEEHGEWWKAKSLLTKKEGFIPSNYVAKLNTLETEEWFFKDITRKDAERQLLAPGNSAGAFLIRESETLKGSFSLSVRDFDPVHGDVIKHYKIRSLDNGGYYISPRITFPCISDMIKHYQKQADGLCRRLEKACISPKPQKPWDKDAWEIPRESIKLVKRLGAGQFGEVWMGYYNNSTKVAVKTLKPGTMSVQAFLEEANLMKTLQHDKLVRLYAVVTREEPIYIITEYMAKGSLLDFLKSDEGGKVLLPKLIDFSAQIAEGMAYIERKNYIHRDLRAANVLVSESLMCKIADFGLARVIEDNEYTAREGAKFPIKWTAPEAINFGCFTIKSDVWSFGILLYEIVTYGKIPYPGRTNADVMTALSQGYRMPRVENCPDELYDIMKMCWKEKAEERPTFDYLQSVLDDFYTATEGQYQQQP
Procedure: as §1

[36] = biological target: T36, SAPK2a(h) (Homo sapiens, UniProt Q16539)
T36 construct: purchased Millipore (Upstate) KinaseProfiler
Procedure: as §1

[37] = biological target: T37, CaMKI(h) (Homo sapiens, UniProt Q14012)
T37 construct: purchased Millipore (Upstate) KinaseProfiler
Procedure: as §1

[38] = biological target: T38, JNK3(h) (Homo sapiens, UniProt P53779)
T38 construct: purchased Millipore (Upstate) KinaseProfiler
T38 sequence (P53779 whole entry): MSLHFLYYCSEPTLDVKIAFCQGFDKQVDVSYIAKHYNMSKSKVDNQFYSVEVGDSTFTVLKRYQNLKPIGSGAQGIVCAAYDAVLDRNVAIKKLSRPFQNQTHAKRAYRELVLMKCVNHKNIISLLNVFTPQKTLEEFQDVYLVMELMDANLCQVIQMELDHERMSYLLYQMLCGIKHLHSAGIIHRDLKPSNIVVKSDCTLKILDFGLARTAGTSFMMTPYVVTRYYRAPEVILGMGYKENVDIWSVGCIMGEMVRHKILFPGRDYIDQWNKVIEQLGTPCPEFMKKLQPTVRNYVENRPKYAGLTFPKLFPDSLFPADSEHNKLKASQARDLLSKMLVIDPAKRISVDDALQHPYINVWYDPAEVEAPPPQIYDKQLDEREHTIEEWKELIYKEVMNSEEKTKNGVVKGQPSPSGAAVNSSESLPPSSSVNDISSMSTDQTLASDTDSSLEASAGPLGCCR
Procedure: as §1

[39] = biological target: T39, Rse(h) (Homo sapiens, UniProt Q06418)
T39 construct: purchased Millipore (Upstate) KinaseProfiler
Procedure: as §1

[40] = biological target: T40, PKA(h) (Homo sapiens, UniProt P17612)
T40 construct: purchased Millipore (Upstate) KinaseProfiler
Procedure: as §1

[41] = biological target: T41, CK1γ1(h) (Homo sapiens, UniProt Q9HCP0)
T41 construct: purchased Millipore (Upstate) KinaseProfiler
Procedure: as §1

[42] = biological target: T42, MAPKAP-K2(h) (Homo sapiens, UniProt P49137)
T42 construct: purchased Millipore (Upstate) KinaseProfiler
Procedure: as §1

`Cc1cccn2cc(-c3ccc(NC(=O)c4ccccc4Br)cc3)nc12` [MS-0022, 2-bromo-N-(4-(8-methylimidazo[1,2-a]pyridin-2-yl)phenyl)benzamide] showed an activity at 10 µM [1] of 105%, an activity at 10 µM [2] of 98% and an activity at 10 µM [3] of 73%. It also gave an activity at 10 µM [4] of 93%, an activity at 10 µM [5] of 83% and an activity at 10 µM [6] of 119%. It also gave an activity at 10 µM [7] of 94%, an activity at 10 µM [8] of 112% and an activity at 10 µM [9] of 107%. For the same compound, the activity at 10 µM [10] was 84%, the activity at 10 µM [11] was 92% and the activity at 10 µM [12] was 90%. For the same compound, the activity at 10 µM [13] was 88%, the activity at 10 µM [14] was 96% and the activity at 10 µM [15] was 109%. For the same compound, the activity at 10 µM [16] was 103%, the activity at 10 µM [17] was 91% and the activity at 10 µM [18] was 103%. The activity at 10 µM [19] was 109%, the activity at 10 µM [20] was 101% and the activity at 10 µM [21] was 94%. For the same compound, the activity at 10 µM [22] was 93%, the activity at 10 µM [23] was 110% and the activity at 10 µM [24] was 97%. It also gave an activity at 10 µM [25] of 103%, an activity at 10 µM [26] of 99% and an activity at 10 µM [27] of 103%. For the same compound, the activity at 10 µM [28] was 91%, the activity at 10 µM [29] was 99% and the activity at 10 µM [30] was 97%. It also gave an activity at 10 µM [31] of 84%, an activity at 10 µM [32] of 103% and an activity at 10 µM [33] of 106%. The activity at 10 µM [34] was 106%, the activity at 10 µM [35] was 103% and the activity at 10 µM [36] was 102%. For the same compound, the activity at 10 µM [37] was 106%, the activity at 10 µM [38] was 71% and the activity at 10 µM [39] was 107%. It also gave an activity at 10 µM [40] of 100%, an activity at 10 µM [41] of 93% and an activity at 10 µM [42] of 92%.
